For data set [1] the following is noted: SST14 and SST28; cited from earlier work.
The test system of data set [2] is patients with Cushing's syndrome. The conditions noted are these: pasireotide monotherapy, patients with CD, cited from earlier work.
For data set [3], the system named is SSTR5. The conditions noted are these: cited from earlier work.
The test system of data set [4] is iPSC^USP48MV organoids. Nature of the data set: EdU uptake (proliferation) in iPSCUSP48MV organoids. It counts as cell-based, human. As to conditions: 100 nM pretreatment 2 h before mifepristone. Here is the method:
(§1) iPSCs were stained for pituitary specific hormones including luteinizing hormone (LH), follicle-stimulating hormone (FSH), growth hormone (GH), prolactin (PRL), ACTH, cytokeratin 8/18 (CAM5.2), pituitary transcription factor PIT-1 and neuroendocrine marker Synaptophysin (Table 5). Cultures were immunostained for proliferation marker EdU (Click-IT EdU Alexa Fluor 555 Imaging Kit, Thermo Fisher Scientific C10338). Antibody dilutions were determined based on manufacturer guidelines and antibody titration (Table 5). Staining was conducted according to previously published protocols. Briefly, organoids and iPSCs grown in 8-well glass bottom chamber slides were fixed using 3.7% formaldehyde, washed with DPBS, permeabilized with 0.5% Triton X-100 (SIGMA X-100, PBS-T, 20 min at room temperature), washed with 0.01% PBS-T, and blocked with 2% donkey serum (Jackson Immuno Research 017-000-121) for 1 hour at room temperature. After blocking, primary antibodies were added and incubated overnight at 4° C. Slides were washed with 0.01% PBS-T and incubated with secondary antibodies (Table 5) with Hoechst (Thermo Fisher Scientific H1399) for 1 hour at room temperature. Organoids were washed and stored in PBS at 4° C. until microscopic analysis. High content confocal microscopy was performed using the Nikon Ti2-E Inverted Microscope (with a Crest X-Light V2 L-FOV Spinning Disk Confocal) at the University of Arizona Cancer Center, or a ZEISS LSM880 34 channel Laser Scanning Confocal Microscope at University of Arizona Marley Imaging Core. Fluorescence intensity was quantified as the percentage of marker-positive cells versus total cells, using Nikon Elements Software (Version 5.21.05). Proliferation for each iPSC line was quantified as the percentage of EdU-positive cells versus total cells.
(§2) Sonic Hedgehog (SHH) was withdrawn from the organoid growth media 16 hours prior to treatment. The experimental treatment groups included: vehicle (Veh), mifepristone (500 nM, Selleckchem S2606), GANT61 (5 μM, Stemcell Technologies 73692), ketoconazole (Keto, 10 μM, Selleckchem S1353), pasireotide (Pas, 100 nM, Target Mol TP2207-SB001), octreotide (Oct, 100 nM, Selleckchem P1017), mifepristone plus GANT61, mifepristone plus Keto, mifepristone plus Pas, relacorilant (500 nM, Corcept Therapeutics CORT125134), relacorilant plus Pas, relacorilant plus Oct, or dexamethasone (Dexa, 100 nM, SIGMA S4902). In the combination treatments, cultures were pretreated with the GANT61, Keto, Pas or Oct for 2 hours prior to treatment with mifepristone or Rela. […] The IC50 values used for each hPITO line for each drug were determined based on dose responses (FIG. 12). […]

Data set [5] has as its system iPSC^ctrl organoids. Nature of the data set: ACTH secretion ELISA, iPSCctrl organoids. It counts as cell-based, human. As to conditions: FIG. 6G; for effect on ACTH secretion in response to mifepristone: 100 nM pretreatment 2 h before mifepristone. The protocol: (§3) Sonic Hedgehog (SHH) was withdrawn from the organoid growth media 16 hours prior to treatment. The experimental treatment groups included: vehicle (Veh), mifepristone (500 nM, Selleckchem S2606), GANT61 (5 μM, Stemcell Technologies 73692), ketoconazole (Keto, 10 μM, Selleckchem S1353), pasireotide (Pas, 100 nM, Target Mol TP2207-SB001), octreotide (Oct, 100 nM, Selleckchem P1017), mifepristone plus GANT61, mifepristone plus Keto, mifepristone plus Pas, relacorilant (500 nM, Corcept Therapeutics CORT125134), relacorilant plus Pas, relacorilant plus Oct, or dexamethasone (Dexa, 100 nM, SIGMA S4902). In the combination treatments, cultures were pretreated with the GANT61, Keto, Pas or Oct for 2 hours prior to treatment with mifepristone or Rela. PitNET tissue derived organoids hPITO36, hPITO37, hPITO38, hPITO39, and hPITO40 were treated with the following experimental conditions: Vehicle (1), pasireotide (2), relacorilant (3), relacorilant & pasireotide (4), mifepristone (5), mifepristone & pasireotide (6). The IC50 values used for each hPITO line for each drug were determined based on dose responses (FIG. 12). All organoid cultures were treated for 48 hours prior to analysis.
(§4) Organoid conditioned media was collected and ACTH secretion using an ELISA according to the manufacturer's protocol (Novus Biologicals Human ACTH ELISA Kit NBP2-66401). The optical density was measured at a wavelength of 450 nm, and ACTH concentration (pg/mL) was interpolated using a standard curve with a 4-parameter logistic regression analysis using GraphPad Prism (v9.3.1).
(In general: ELISA stands for enzyme-linked immunosorbent assay.)

Data set [6] relates to ACTH. In words: Spectral flow cytometry, ACTH positive cells, hPITOs. It counts as cell-based, human. The conditions noted are these: hPITO, pretreatment before mifepristone, FIGS. 9I, J. From the text:
1.3 Generation and Culture of Human PitNET Tissue Organoids (hPITOs)
Patients undergoing planned transsphenoidal surgery for PitNETs were identified in the outpatient neuroendocrinology and neurosurgery clinics and collected by the St. Joseph's Hospital and Barrow Neurological Institute Biobank under the collection protocol PHXA-05TS038, and outcomes data protocol PHXA-0004-72-29 with approval of the Institutional Review Board (IRB) and patient consent. De-identified samples were shipped in collection and transport media (Table 3) to the Zavros laboratory (University of Arizona) for processing within 24 hours of collection. Resected PitNET tissues were washed with Dulbeccos Phosphate Buffered Saline (DPBS) supplemented with 1× Penicillin/Streptomycin, 1× Kanamycin and 1× Amphotericin/Gentamycin, minced into smaller pieces, and incubated with digestion buffer (Dulbecco's Modified Eagle Medium/Nutrient Mixture F-12 (DMEM/F12) supplemented with 0.4% Collagenase 2, 0.1% Hyaluronic Acid, 0.03% Trypsin). The tissue was incubated with Accutase (Thermo Fisher Scientific) for a further 5 minutes, and the cells were pelleted and washed with DPBS supplemented with antibiotics. Dissociated cells were then seeded as Matrigel™ domes in culture dishes and overlaid with growth media (Table 4). Media was replaced every 3 days and organoids were harvested for downstream experiments or passaged after 15 days of culture (FIG. 1B).
Sonic Hedgehog (SHH) was withdrawn from the organoid growth media 16 hours prior to treatment. […] The IC50 values used for each hPITO line for each drug were determined based on dose responses (FIG. 12). […]
For orientation: Flow cytometry measures light scatter and fluorescence of single cells or particles in a stream.

For data set [7], the system named is hPITO37. Nature of the data set: Dose response of hPITO37. It counts as cell-based, human. As to conditions: hPITO37, FIG. 12. The protocol:
as §3

Data set [8] deals with iPSC^USP48MV organoids. In words: ACTH secretion ELISA, iPSCUSP48 organoids. It counts as cell-based, human. As to conditions: FIG. 7G; for effect on ACTH secretion in response to mifepristone: iPSCUSP48, 100 nM pretreatment 2 h before mifepristone. Here is the method:
as §3, §4

Data set [9] relates to iPSC^ctrl organoids. In words: EdU uptake (proliferation) in iPSCctrl organoids. The format is cell-based, human. As to conditions: 100 nM pretreatment 2 h before mifepristone. The protocol: as §1, §2
The subject of data set [10] is SSTR2. As to conditions: cited from earlier work.

The values that follow come from US20260325504A1, “Genetically Engineered Human Pituitary Corticotroph Tumor Organoids Exhibit Divergent Responses to Selective Glucocorticoid Receptor Modulators” (Corcept Therapeutics Incorporated, priority 2022, published 2026).

“Also recorded” adds a separate entry of the source. Starred links: 1 amine or outer side, 2 acyl side, 3 side chain; linkers in the order of their positions; H or OH if unused. Non-standard residues stand in square brackets, D forms with d. Residues, ends and D or L forms follow the SMILES beside them. Groups on a side chain read outwards from the residue. *: point of attachment. Ethylenediamine = C(CN[*:2])N[*:1]; Hyp = O=C(O)[C@@H]1C[C@@H](O)CN1; Phg = N[C@H](C(=O)O)c1ccccc1; CO = O=C([*:1])[*:2]; Bn = c1ccc(C*)cc1

What is called half-life is how long it takes for the measured level to halve.

For SST, the half-life in [1] is less than 3 min.

In the case of `NCCCC[C@@H]1NC(=O)[C@@H](Cc2c[nH]c3ccccc23)NC(=O)[C@H](c2ccccc2)NC(=O)[C@@H]2C[C@@H](OC(=O)NCCN)CN2C(=O)[C@H](Cc2ccccc2)NC(=O)[C@H](Cc2ccc(OCc3ccccc3)cc2)NC1=O` [pasireotide] (cyclo([Hyp]([CO-Ethylenediamine])[Phg][dW]KY(Bn)F)), the “patients with normalized cortisol” value in data set [2] is on record as “up to 42%”. Besides, the “patients with normalized urinary free cortisol” value in data set [2] (two large prospective studies) is given as “up to 42%”. For the same compound, the “binding to / activation of SSTR5” value in data set [3] was “high-affinity binding to SSTR5; also recorded: preferentially binds or activates somatostatin receptor type 5 (SSTR5)”. Moreover, the “effect on proliferative response to mifepristone (EdU uptake)” value in [4] and in [9] was “no effect” in each case. The “effect on ACTH secretion in response to mifepristone” value in [5] and in data set [8] was “significantly reduced ACTH secretion” throughout. Also, the “reduction of hormone (ACTH) secretion in combination with relacorilant” value in data set [5] (with relacorilant) was “greater magnitude compared to that of octreotide plus relacorilant”; in data set [8] (iPSCUSP48MV, with relacorilant), “greater magnitude compared to that of octreotide plus relacorilant”. The “effect on mifepristone-induced increase of ACTH expressing cells” value in data set [6] was “not inhibited”. Besides, in [7], the “drug response (sensitivity)” value is reported as “insensitive”.

As for `C[C@@H](O)[C@@H]1NC(=O)[C@H](CCCCN)NC(=O)[C@@H](Cc2c[nH]c3ccccc23)NC(=O)[C@H](Cc2ccccc2)NC(=O)[C@@H](NC(=O)[C@H](N)Cc2ccccc2)CSSC[C@@H](C(=O)N[C@H](CO)[C@@H](C)O)NC1=O` [octreotide], the “effect on proliferative response to mifepristone (EdU uptake)” value in data set [4] and in data set [9] was “inhibited” in each case. Also, the “binding to / activation of SSTR2” value in [10] is on record as “preferentially binds or activates somatostatin receptor type 2 (SSTR2)”. Also, the “effect on ACTH secretion in response to mifepristone” value is “inhibition by octreotide was greater that pasireotide” in data set [5], “significantly reduced ACTH secretion” in data set [5] (listed as Oct), “inhibition by octreotide was greater that pasireotide” in [8] and “significantly reduced ACTH secretion” in [8] (listed as Oct).
